Test results reported in patent US20220177462A1, “SUBSTITUTED HETEROCYCLIC AMIDE COMPOUND AND PREPARATION METHOD THEREFOR AND PHARMACEUTICAL USE THEREOF” (GENFLEET THERAPEUTICS (SHANGHAI) INC., priority 2019, published 2022).
pIC50: −log10 of the molar value.

Test system: U937 cells
Assay: Inhibitory activity against programmed necroptosis of U937 cells induced by TNF-α
Format: cell-based, human
Settings: Homo sapiens, U-937, 48 h, 100 ng/ml human TNF-α and 25 μM Q-VD-Oph, 48 hours, CellTiter-Glo survival rate; read-out: U937 IC50
Method: The U937 cell strain which was used in the following Testing Examples was derived from ATCC, No.: CRL-1593.2, batch No.: 63479999, culture medium: RPMI-1640+10% FBS.
The compound was dissolved in DMSO to prepare a 10 mM stock solution. The stock solution was diluted in 3.16 folds with DMSO to a series of gradient concentrations. Then, the resultant solution was diluted in 250 folds with a culture medium to prepare a working solution. The U937 cells were inoculated in a 384-well plate at 5000/well. The compound at respective concentration was added to each of the cells, and was mixed with the cells homogeneously. 100 ng/ml human TNF-α and 25 μM Q-VD-Oph were added simultaneously to induce programmed necroptosis of the cells. The final concentration of DMSO was 2%. The cells were placed in the incubator at 37° C. and 5% CO2 for further culture of 48 hours. Celltiter-Glo reagent was used for detection. After adequate pyrolysis reaction, the chemiluminescence readout value was recorded by a microplate reader. The survival rate was calculated from the detection results using the equation as follows: SR (%)=(RLU compound−RLU blank)/(RLU high control−RLU blank)×100%. The survival rate was plotted against the final concentration of respective compound using a 4-parameter fitting to calculate the inhibitory IC50 of the compound against programmed necroptosis of cells induced by TNF-a.

Row | SMILES | pIC50
1 | COc1ncc(-c2ccc3nc(N)sc3c2)cc1C(=O)NC(C)c1ccccc1OC(F)(F)F (single isomer, unassigned) [Compound Z1, 5-(2-aminobenzothiazol-6-yl)-2-methoxy-N-(1-(2-(trifluoromethoxy)phenyl)ethyl)nicotinamide] | 7.28
2 | CC(NC(=O)c1cnc(Cl)c(-c2ccc3nc(N)sc3c2)c1)c1ccccc1OC(F)(F)F (stereo not drawn) [Compound Z8, 5-(2-aminobenzo[d]thiazol-6-yl)-6-chloro-N-(1-(2-(trifluoromethoxy)phenyl)ethyl)nicotinamide] | 7.06
3 | Cc1ncc(-c2ccc3nc(N)sc3c2)cc1C(=O)NCc1c(F)cccc1OCC1CCCC1 [Compound Z12, 5-(2-aminobenzo[d]thiazol-6-yl)-N-(2-(cyclopentylmethoxy)-6-fluorobenzyl)-2-methylnicotinamide] | 8.00
4 | COc1ncc(C(=O)NCc2cc(F)ccc2OC2CCCC2)cc1-c1ccc2nc(N)sc2c1 [Compound Z13, 5-(2-aminobenzo[d]thiazol-6-yl)-N-(2-(cyclopentyloxy)-5-fluorobenzyl)-6-methoxynicotinamide] | 7.77
5 | COc1ncc(-c2ccc3nc(N)sc3c2)cc1C(=O)NCc1cc(OC(F)(F)F)ccc1F [Compound Z14, 5-(2-aminobenzo[d]thiazol-6-yl)-N-(2-fluoro-5-(trifluoromethoxy)benzyl)-2-methoxynicotinamide] | 8.22
6 | COc1ncc(-c2ccc3nc(N)sc3c2)cc1C(=O)NCCCc1ccccc1 [Compound Z16, 5-(2-aminobenzo[d]thiazol-6-yl)-2-methoxy-N-(3-phenylpropyl)nicotinamide] | 7.59
7 | COc1ncc(-c2ccc3nc(N)sc3c2)cc1C(=O)N1CCCC(Cc2ccc(F)cc2)C1 (stereo not drawn) [Compound Z17, (5-(2-aminobenzo[d]thiazol-6-yl)-2-methoxypyridin-3-yl)(3-(4-fluorobenzyl)piperidin-1-yl)methanone] | 8.40
8 | COc1ncc(-c2ccc3nc(N)sc3c2)cc1C(=O)NCc1c(F)cccc1OC1CCCC1 [Compound Z18, 5-(2-aminobenzo[d]thiazol-6-yl)-N-(2-(cyclopentyloxy)-6-fluorobenzyl)-2-methoxynicotinamide] | 8.40
9 | COc1ncc(-c2ccc3nc(N)sc3c2)cc1C(=O)NCc1cc(F)ccc1OC1CCCC1 [Compound Z19, 5-(2-aminobenzo[d]thiazol-6-yl)-N-(2-(cyclopentyloxy)-5-fluorobenzyl)-2-methoxynicotinamide] | 8.15
10 | COc1ncc(-c2ccc3nc(N)sc3c2)cc1C(=O)NCc1ccccc1OCC1CC1 [Compound Z20, 5-(2-aminobenzo[d]thiazol-6-yl)-N-(2-(cyclopropylmethoxy)benzyl)-2-methoxynicotinamide] | 7.74
11 | Nc1nc2ccc(-c3cncc(C(=O)NCc4ccccc4OCC4CC4)c3)cc2s1 [Compound Z22, 5-(2-aminobenzo[d]thiazol-6-yl)-N-(2-(cyclopropylmethoxy)benzyl)nicotinamide] | 7.21
12 | CC(NC(=O)c1cc(-c2ccn3nc(N)nc3c2)cc2[nH]ccc12)c1ccccc1OC(F)(F)F (stereo not drawn) [Compound Z24, 6-(2-amino-[1,2,4]triazolo[1,5-a]pyridin-7-yl)-N-(1-(2-(trifluoromethoxy)phenyl)ethyl)-1H-indole-4-carboxamide] | 6.82
13 | CC(NC(=O)c1cc(-c2ccn3nc(N)nc3c2)c2cc[nH]c2c1)c1ccccc1OC(F)(F)F (stereo not drawn) [Compound Z25, 4-(2-amino-[1,2,4]triazolo[1,5-a]pyridin-7-yl)-N-(1-(2-(trifluoromethoxy)phenyl)ethyl)-1H-indole-6-carboxamide] | 6.85
14 | COc1nc(C)c(-c2ccc3nc(N)sc3c2)cc1C(=O)NC(C)c1ccccc1OC(F)(F)F (stereo not drawn) [Compound Z37, 5-(2-aminobenzo[d]thiazol-6-yl)-2-methoxy-6-methyl-N-(1-(2-(trifluoromethoxy)phenyl)ethyl)nicotinamide] | 7.35
15 | COc1nc(C)c(-c2ccc3nc(N)sc3c2)cc1C(=O)NCc1cc(F)cc(F)c1OCC1CC1 [Compound Z38, 5-(2-aminobenzo[d]thiazol-6-yl)-N-(2-(cyclopropylmethoxy)-3,5-difluorobenzyl)-2-methoxy-6-methylnicotinamide] | 7.85
16 | COc1nc(C)c(-c2ccc3nc(N)sc3c2)cc1C(=O)NCc1ccccc1OC1CCOC1 (stereo not drawn) [Compound Z40, 5-(2-aminobenzo[d]thiazol-6-yl)-2-methoxy-6-methyl-N-(2-((tetrahydrofuran-3-yl)oxy)benzyl)nicotinamide] | 7.17
17 | COc1nc(C)c(-c2ccc3nc(N)sc3c2)cc1C(=O)NCc1cccnc1OC1CCCC1 [Compound Z41, 5-(2-aminobenzo[d]thiazol-6-yl)-N-((2-(cyclopentyloxy)pyridin-3-yl)methyl)-2-methoxy-6-methylnicotinamide] | 7.85
18 | COc1nc(C)c(-c2ccc3nc(N)sc3c2)cc1C(=O)NCc1ccccc1OC(C)C [Compound Z42, 5-(2-aminobenzo[d]thiazol-6-yl)-N-(2-isopropoxybenzyl)-2-methoxy-6-methylnicotinamide] | 7.37
19 | Cc1ncc(-c2ccc3nc(N)sc3c2)cc1C(=O)NC(C)c1cc(OC(F)(F)F)ccc1F (stereo not drawn) [Compound Z43, 5-(2-aminobenzo[d]thiazol-6-yl)-N-(1-(2-fluoro-5-(trifluoromethoxy)phenyl)ethyl)-2-methylnicotinamide] | 8.52
20 | CC(NC(=O)c1cc(-c2ccc3nc(N)sc3c2)cnc1N)c1ccccc1OC(F)(F)F (stereo not drawn) [Compound Z46, 2-amino-5-(2-aminobenzo[d]thiazol-6-yl)-N-(1-(2-(trifluoromethoxy)phenyl)ethyl)nicotinamide] | 7.12
21 | COc1ncc(-c2ccc3nc(N)sc3c2)cc1C(=O)NC(C)c1c(F)cccc1OC(F)(F)F (stereo not drawn) [Compound Z48, 5-(2-aminobenzo[d]thiazol-6-yl)-N-(1-(2-fluoro-6-(trifluoromethoxy)phenyl)ethyl)-2-methoxynicotinamide] | 7.06
22 | COc1ncc(-c2ccc3nc(N)sc3c2)cc1C(=O)NCc1ccccc1OC(C)C [Compound Z50, 5-(2-aminobenzo[d]thiazol-6-yl)-N-(2-isopropoxybenzyl)-2-methoxynicotinamide] | 7.31
23 | COc1ncc(-c2ccc3nc(N)sc3c2)cc1C(=O)NCc1cccnc1OC1CCCC1 [Compound Z52, 5-(2-aminobenzo[d]thiazol-6-yl)-N-((2-(cyclopentyloxy)pyridin-3-yl)methyl)-2-methoxynicotinamide] | 7.72
24 | COc1ncc(-c2ccc3nc(N)sc3c2)cc1C(=O)NCc1ccccc1OC1CCOC1 (stereo not drawn) [Compound Z53, 5-(2-aminobenzo[d]thiazol-6-yl)-2-methoxy-N-(2-((tetrahydrofuran-3-yl)oxy)benzyl)nicotinamide] | 7.38
25 | Cn1ncc2c(-c3ccn4nc(N)nc4c3)cc(C(=O)NCc3cccnc3OC3CCCC3)cc21 [Compound Z57, 4-(2-amino-[1,2,4]triazolo[1,5-a]pyridin-7-yl)-N-((2-(cyclopentyloxy)pyridin-3-yl)methyl)-1-methyl-1H-indazole-6-carboxamide] | 7.96
26 | Cn1ncc2c(-c3ccn4nc(N)nc4c3)cc(C(=O)NCc3cc(F)ccc3OCC3CC3)cc21 [Compound Z59, 4-(2-amino-[1,2,4]triazolo[1,5-a]pyridin-7-yl)-N-(2-(cyclopropylmethoxy)-5-fluorobenzyl)-1-methyl-1H-indazole-6-carboxamide] | 7.62
27 | CC(c1ccc(F)cc1)n1cc(NC(=O)c2cc(-c3ccn4nc(N)nc4c3)c3cnn(C)c3c2)cn1 (stereo not drawn) [Compound Z60, 4-(2-amino-[1,2,4]triazolo[1,5-a]pyridin-7-yl)-N-(1-(1-(4-fluorophenyl)ethyl)-1H-pyrazol-4-yl)-1-methyl-1H-indazole-6-carboxamide] | 6.67
28 | Cn1ncc2c(-c3ccn4nc(N)nc4c3)cc(C(=O)NCc3cc(F)ccc3OC3CCOCC3)cc21 [Compound Z61, 4-(2-amino-[1,2,4]triazolo[1,5-a]pyridin-7-yl)-N-(5-fluoro-2-((tetrahydro-2H-pyran-4-yl)oxy)benzyl)-1-methyl-1H-indazole-6-carboxamide] | 8.70
29 | Cn1ncc2c(-c3ccn4nc(N)nc4c3)cc(C(=O)NCc3cc(F)ccc3OC3CCOC3)cc21 (stereo not drawn) [Compound Z62, 4-(2-amino-[1,2,4]triazolo[1,5-a]pyridin-7-yl)-N-(5-fluoro-2-((tetrahydrofuran-3-yl)oxy)benzyl)-1-methyl-1H-indazole-6-carboxamide] | 7.52
30 | COc1ncc(-c2ccc3nc(N)sc3c2)cc1C(=O)Nc1cnn(C(C)c2ccc(F)cc2)c1 (stereo not drawn) [Compound Z63, 5-(2-aminobenzo[d]thiazol-6-yl)-N-(1-(1-(4-fluorophenyl)ethyl)-1H-pyrazol-4-yl)-2-methoxynicotinamide] | 8.15
